PubChem BioAssay AID1963867 (Molecular Pharmacology Branch, DTP, NCI, 2024)

Test system: KRAS-mutant PDC tumor spheroid with HUVEC/MSC, viability
Assay: Anticancer human tumor 327498-153-R-J2-PDC patient-derived uterine carcinosarcoma cell line growth inhibition [KRAS2]
Settings: for IC50: curve of first compound; for viability, T/C: stronger effect = lower value
Method in brief: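 KRAS-mutant tumor cells were grown as spheroids with HUVEC endothelial cells and human MSCs as stroma. Targeted agents were tested alone and with KRAS pathway inhibitors. Doses started at or near clinical Cmax, or 10 microM, descending half-log.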

[1] = second compound 0.1 µM, first compound 0.0316 µM
[2] = second compound 0.1 µM, first compound 0.1 µM
[3] = second compound 0.1 µM, first compound 0.316 µM
[4] = second compound 0.1 µM, first compound 1 µM
[5] = second compound 0.1 µM, first compound 3.16 µM
[6] = second compound 0.1 µM, first compound 10 µM
[7] = second compound 0.316 µM, first compound 0.0316 µM
[8] = second compound 0.316 µM, first compound 0.1 µM
[9] = second compound 0.316 µM, first compound 0.316 µM
[10] = second compound 0.316 µM, first compound 1 µM
[11] = second compound 0.316 µM, first compound 3.16 µM
[12] = second compound 0.316 µM, first compound 10 µM
[13] = second compound 1 µM, first compound 0.0316 µM
[14] = second compound 1 µM, first compound 0.1 µM
[15] = second compound 1 µM, first compound 0.316 µM
[16] = second compound 1 µM, first compound 1 µM
[17] = second compound 1 µM, first compound 3.16 µM
[18] = second compound 1 µM, first compound 10 µM
[19] = second compound 3.16 µM, first compound 0.0316 µM
[20] = second compound 3.16 µM, first compound 0.1 µM
[21] = second compound 3.16 µM, first compound 0.316 µM
[22] = second compound 3.16 µM, first compound 1 µM
[23] = second compound 3.16 µM, first compound 3.16 µM
[24] = second compound 3.16 µM, first compound 10 µM
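Note: spheroids exposed to agents for seven days before reading.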
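Throughout, for viability, T/C: 100% = DMSO vehicle wells so lower means fewer viable cells.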

| SMILES | IC50 (second compound 0.1 µM) | IC50 (second compound 0.316 µM) | IC50 (second compound 1 µM) | IC50 (second compound 3.16 µM) | viability, T/C [1] | viability, T/C [2] | viability, T/C [3] | viability, T/C [4] | viability, T/C [5] | viability, T/C [6] | viability, T/C [7] | viability, T/C [8] | viability, T/C [9] | viability, T/C [10] | viability, T/C [11] | viability, T/C [12] | viability, T/C [13] | viability, T/C [14] | viability, T/C [15] | viability, T/C [16] | other results |
| --- | --- | --- | --- | --- | --- | --- | --- | --- | --- | --- | --- | --- | --- | --- | --- | --- | --- | --- | --- | --- | --- |
| CC1(C)CCC(CN2CCN(c3ccc(C(=O)NS(=O)(=O)c4ccc(NCC5CCOCC5)c([N+](=O)[O-])c4)c(Oc4cnc5[nH]ccc5c4)c3)CC2)=C(c2ccc(Cl)cc2)C1 + CNCc1ccccc1-c1csc(C(C)Nc2nc(C)nc3cc(OC)c(OC)cc23)c1 | 3.28 µM | 2.71 µM | 1.93 µM | < 0.0316 µM | 90.5% | 78.1% | 79.4% | 77.5% | 50.8% | 13.7% | 84.3% | 79.5% | 73.2% | 76.4% | 46% | 9.74% | 72.5% | 72.8% | 71.3% | 72.3% | IC50 (second compound 10 µM): < 0.0316 µM; viability, T/C [17]: 33.2%; viability, T/C [18]: 1.07%; viability, T/C [19]: 1.08%; viability, T/C [20]: 0.13%; viability, T/C [21]: 0.22%; viability, T/C [22]: 0.13%; viability, T/C [23]: 0.09%; viability, T/C [24]: 0.25%; viability, T/C (second compound 10 µM, first compound 0.0316 µM): 0.41%; viability, T/C (second compound 10 µM, first compound 0.1 µM): 0.15%; viability, T/C (second compound 10 µM, first compound 0.316 µM): 0.26%; viability, T/C (second compound 10 µM, first compound 1 µM): 0.14%; viability, T/C (second compound 10 µM, first compound 3.16 µM): 0.16%; viability, T/C (second compound 10 µM, first compound 10 µM): 0.23% |
| CC1(C)CCC(CN2CCN(c3ccc(C(=O)NS(=O)(=O)c4ccc(NCC5CCOCC5)c([N+](=O)[O-])c4)c(Oc4cnc5[nH]ccc5c4)c3)CC2)=C(c2ccc(Cl)cc2)C1 + C=CC(=O)N1CCN(c2nc(OCC3CCCN3C)nc3c2CCN(c2cccc4cccc(C)c24)C3)CC1CC#N | 1.65 µM | 1.1 µM | < 0.0316 µM | < 0.0316 µM | 56.8% | 59.2% | 52% | 53% | 45.9% | 12.1% | 48.7% | 49% | 58.4% | 52.2% | 27.3% | 1.57% | 44.5% | 44.1% | 44.9% | 48% | IC50 (second compound 0.0316 µM): 1.99 µM; viability, T/C (second compound 0.0316 µM, first compound 0.0316 µM): 70.1%; viability, T/C (second compound 0.0316 µM, first compound 0.1 µM): 66.6%; viability, T/C (second compound 0.0316 µM, first compound 0.316 µM): 72.7%; viability, T/C (second compound 0.0316 µM, first compound 1 µM): 63.8%; viability, T/C (second compound 0.0316 µM, first compound 3.16 µM): 40.2%; viability, T/C (second compound 0.0316 µM, first compound 10 µM): 8.7%; viability, T/C [17]: 18.5%; viability, T/C [18]: 0.31%; viability, T/C [19]: 1.15%; viability, T/C [20]: 1.18%; viability, T/C [21]: 0.54%; viability, T/C [22]: 0.45%; viability, T/C [23]: 1.03%; viability, T/C [24]: 0.39% |
